# Source: PubChem BioAssay AID330 (DTP/NCI, 2004)
# Where “and” joins values, the source holds several entries; their conditions need not be identical. Equal values may be shown once. Toxic doses and inconclusive results are not listed.
# System: P388 leukemia ip, CD2F1 mice, survival T/C
# Experiment: NCI In Vivo Anticancer Drug Screen. Data for tumor model P388 Leukemia (intraperitoneal) in CD2F1 (CDF1) mice
# Conditions: endpoint: median survival time, higher = longer survival
# Procedure, shortened: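 Mice carrying the transplanted tumor received test compound or vehicle. Survival was recorded in each group, and the value is the treated-group measurement divided by that of the vehicle-treated control group.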
# [1] = dose: 100.0 mg/kg/injection, schedule: Q04DX003 (ip), vehicle: saline with Tween-80
# [2] = dose: 200.0 mg/kg/injection, schedule: Q04DX003 (ip), vehicle: saline with Tween-80
# [3] = dose: 50.0 mg/kg/injection, schedule: Q01DX009 (ip), vehicle: saline with Tween-80
# [4] = dose: 100.0 mg/kg/injection, schedule: Q01DX009 (ip), vehicle: saline with Tween-80
# [5] = dose: 200.0 mg/kg/injection, schedule: Q01DX009 (ip), vehicle: saline with Tween-80
# [6] = dose: 25.0 mg/kg/injection, schedule: Q01DX005 (ip), vehicle: Klucel (hydroxypropylcellulose) (HPC)
# [7] = dose: 50.0 mg/kg/injection, schedule: Q01DX005 (ip), vehicle: Klucel (hydroxypropylcellulose) (HPC)
# [8] = dose: 100.0 mg/kg/injection, schedule: Q01DX005 (ip), vehicle: Klucel (hydroxypropylcellulose) (HPC)
# [9] = dose: 60.0 mg/kg/injection, schedule: Q01DX005 (ip), vehicle: saline with Tween-80
# [10] = dose: 200.0 mg/kg/injection, schedule: Q01DX005 (ip), vehicle: Klucel (hydroxypropylcellulose) (HPC)
# [11] = dose: 50.0 mg/kg/injection, schedule: Q01DX005 (ip), vehicle: saline with Tween-80
# [12] = dose: 100.0 mg/kg/injection, schedule: Q01DX005 (ip), vehicle: saline with Tween-80
# [13] = dose: 12.5 mg/kg/injection, schedule: Q01DX009 (ip), vehicle: saline with Tween-80
# [14] = dose: 25.0 mg/kg/injection, schedule: Q01DX009 (ip), vehicle: saline with Tween-80
# [15] = dose: 50.0 mg/kg/injection, schedule: Q01DX009 (ip), vehicle: Klucel (hydroxypropylcellulose) (HPC)
# [16] = dose: 100.0 mg/kg/injection, schedule: Q01DX009 (ip), vehicle: Klucel (hydroxypropylcellulose) (HPC)
compound,measurement,setting,value
COc1ccc(CCCc2cc3c(cc2OC)OCO3)cc1,T/C,"dose: 60.0 mg/kg/injection, schedule: Q01DX005 (ip), vehicle: Klucel (hydroxypropylcellulose) (HPC)",100 % of control
same,T/C,"dose: 120.0 mg/kg/injection, schedule: Q01DX005 (ip), vehicle: Klucel (hydroxypropylcellulose) (HPC)",100 % of control
same,T/C,"dose: 240.0 mg/kg/injection, schedule: Q01DX005 (ip), vehicle: Klucel (hydroxypropylcellulose) (HPC)",97 % of control
O=[N+]([O-])c1ccc(NCCO)c([N+](=O)[O-])c1,T/C,[1],100 % of control
same,T/C,[2],100 % of control
same,T/C,"dose: 400.0 mg/kg/injection, schedule: Q04DX003 (ip), vehicle: saline with Tween-80",90 % of control
C=C1C2CCC3C(CCC4C5(C)CCCC43C3OCCN3C5)(C2)C1OC(C)=O (stereo not drawn),T/C,"dose: 12.0 mg/kg/injection, schedule: Q01DX009 (ip), vehicle: Klucel (hydroxypropylcellulose) (HPC)",100 % of control
same,T/C,"dose: 24.0 mg/kg/injection, schedule: Q01DX009 (ip), vehicle: Klucel (hydroxypropylcellulose) (HPC)",96 % of control
same,T/C,"dose: 48.0 mg/kg/injection, schedule: Q01DX009 (ip), vehicle: Klucel (hydroxypropylcellulose) (HPC)",91 % of control
CCCCCSc1ncnc2nc[nH]c12,T/C,[3],100 % of control
same,T/C,[4],109 % of control
same,T/C,"dose: 100.05 mg/kg/injection, schedule: Q04DX003 (ip), vehicle: saline with Tween-80",95 % of control
same,T/C,[5],104 % of control
same,T/C,[2],104 % of control
O=C1c2c(O)cccc2C(C2OC(CO)C(O)C(O)C2O)c2cc(CO)cc(O)c21 (stereo not drawn),T/C,[6],101 % of control
same,T/C,"dose: 50.0 mg/kg/injection, schedule: Q01DX001 (ip), vehicle: water",104 % of control
same,T/C,[7],104 % of control and 107 % of control
same,T/C,"dose: 100.0 mg/kg/injection, schedule: Q01DX001 (ip), vehicle: water",104 % of control
same,T/C,[8],117 % of control and 110 % of control
same,T/C,"dose: 200.0 mg/kg/injection, schedule: Q01DX001 (ip), vehicle: water",104 % of control
CC(C)c1ccc(C(=O)O)cc1,T/C,[3],103 % of control
same,T/C,[4],103 % of control
same,T/C,[5],115 % of control
COc1ccc(C(C)=O)cc1CSC(=S)N1CCSCC1,T/C,"dose: 15.0 mg/kg/injection, schedule: Q01DX005 (ip), vehicle: saline with Tween-80",104 % of control
same,T/C,"dose: 30.0 mg/kg/injection, schedule: Q01DX005 (ip), vehicle: saline with Tween-80",99 % of control
same,T/C,[9],90 % of control and 92 % of control
same,T/C,"dose: 240.0 mg/kg/injection, schedule: Q01DX005 (ip), vehicle: saline with Tween-80",88 % of control
C=C(C)[C@H]1CCC23C[C@@H]4C(C[C@H]2C1(C)CCC(=O)O)C4(C)C3 (stereo partly drawn),T/C,"dose: 5.5 mg/kg/injection, schedule: Q01DX005 (ip), vehicle: Klucel (hydroxypropylcellulose) (HPC)",100 % of control
same,T/C,"dose: 11.0 mg/kg/injection, schedule: Q01DX005 (ip), vehicle: Klucel (hydroxypropylcellulose) (HPC)",106 % of control
same,T/C,"dose: 22.0 mg/kg/injection, schedule: Q01DX005 (ip), vehicle: Klucel (hydroxypropylcellulose) (HPC)",100 % of control
same,T/C,[6],91 % of control
same,T/C,"dose: 44.0 mg/kg/injection, schedule: Q01DX005 (ip), vehicle: Klucel (hydroxypropylcellulose) (HPC)",100 % of control
same,T/C,[7],100 % of control
same,T/C,[8],91 % of control
same,T/C,[10],91 % of control
CC(C)(C)C1CCC2(CC1)OCC1CCCN12 (stereo not drawn),T/C,"dose: 25.0 mg/kg/injection, schedule: Q01DX005 (ip), vehicle: saline with Tween-80",88 % of control
same,T/C,[11],88 % of control
same,T/C,[12],95 % of control
CCOC(=O)c1[nH]ncc1[N+](=O)[O-],T/C,"dose: 100.0 mg/kg/injection, schedule: Q01DX001 (ip), vehicle: saline with Tween-80",103 % of control
same,T/C,"dose: 200.0 mg/kg/injection, schedule: Q01DX001 (ip), vehicle: saline with Tween-80",102 % of control
same,T/C,"dose: 400.0 mg/kg/injection, schedule: Q01DX001 (ip), vehicle: saline with Tween-80",102 % of control
CCCCN(CCCC)CC1CC(C(C)(C)C)CCC1O (stereo not drawn),T/C,[7],91 % of control
same,T/C,[8],91 % of control
O=C1COc2ccccc2C(=O)C1,T/C,"dose: 50.0 mg/kg/injection, schedule: Q01DX009 (ip), vehicle: saline",109 % of control
same,T/C,"dose: 100.0 mg/kg/injection, schedule: Q01DX009 (ip), vehicle: saline",101 % of control
same,T/C,"dose: 200.0 mg/kg/injection, schedule: Q01DX009 (ip), vehicle: saline",101 % of control
C=CCn1cnc2c(=S)nc[nH]c21,T/C,[13],104 % of control
same,T/C,[14],104 % of control
same,T/C,[3],109 % of control
same,T/C,[1],109 % of control
same,T/C,[2],100 % of control
COC(=O)CC1(C(=O)OC)C2CCCN2C2(C#N)c3ccccc3CCC12Br (stereo not drawn),T/C,"dose: 100.0 mg/kg/injection, schedule: Q01DX001 (ip), vehicle: saline",111 % of control
same,T/C,"dose: 200.0 mg/kg/injection, schedule: Q01DX001 (ip), vehicle: saline",117 % of control
same,T/C,"dose: 400.0 mg/kg/injection, schedule: Q01DX001 (ip), vehicle: saline",104 % of control
COc1ccc(Cl)c(C)c1C(=O)OC1CC(OC2C(O)CC(OC3CCCC4C3C=CC3CCCC/C=C/C5C=C(C(=O)O)C(C)CC56OC(=O)C(=C6O)OC(=O)C34C)OC2C)OC(C)C1O (stereo not drawn),T/C,"dose: 25.0 mg/kg/injection, schedule: Q01DX009 (ip), vehicle: Klucel (hydroxypropylcellulose) (HPC)",103 % of control
same,T/C,[15],97 % of control
same,T/C,[16],89 % of control
O=S(=O)(Nc1cc2c3ccccc3ccc2c2ccccc12)c1ccccc1,T/C,[15],96 % of control
same,T/C,[16],105 % of control
same,T/C,"dose: 200.0 mg/kg/injection, schedule: Q01DX009 (ip), vehicle: Klucel (hydroxypropylcellulose) (HPC)",100 % of control
CC1=CC(=O)C=CC1=Nc1ccc(N(C)C)cc1,T/C,[14],108 % of control
same,T/C,[3],109 % of control
O=C(O)c1c(-c2ccccc2)cnc2ccccc12,T/C,[3],95 % of control
same,T/C,[4],89 % of control
same,T/C,[5],97 % of control
NC(=S)N/N=C/c1c(Br)nc2n1CCS2,T/C,"dose: 100.0 mg/kg/injection, schedule: Q01DX001 (ip), vehicle: Klucel (hydroxypropylcellulose) (HPC)",99 % of control
same,T/C,"dose: 200.0 mg/kg/injection, schedule: Q01DX001 (ip), vehicle: Klucel (hydroxypropylcellulose) (HPC)",92 % of control
same,T/C,"dose: 400.0 mg/kg/injection, schedule: Q01DX001 (ip), vehicle: Klucel (hydroxypropylcellulose) (HPC)",93 % of control
CSc1ncn(C)c1C(N)=O,T/C,[7],97 % of control
same,T/C,[8],99 % of control
same,T/C,[10],99 % of control
C[CH2][Pb]([CH2]C)([CH2]C)[O]C(=O)COc1ccccc1,T/C,"dose: 1.5 mg/kg/injection, schedule: Q04DX003 (ip), vehicle: Klucel (hydroxypropylcellulose) (HPC)",100 % of control
same,T/C,"dose: 3.0 mg/kg/injection, schedule: Q04DX003 (ip), vehicle: Klucel (hydroxypropylcellulose) (HPC)",100 % of control
same,T/C,"dose: 6.0 mg/kg/injection, schedule: Q04DX003 (ip), vehicle: Klucel (hydroxypropylcellulose) (HPC)",106 % of control
CCc1cccc(C)c1NC(=O)C(=O)C(C#N)c1ccc(CC#N)cc1 (stereo not drawn),T/C,[9],101 % of control
same,T/C,"dose: 120.0 mg/kg/injection, schedule: Q01DX005 (ip), vehicle: saline with Tween-80",100 % of control
O=S(=O)(/N=C/c1ccccc1)c1ccc(Cl)cc1,T/C,[13],101 % of control
same,T/C,[14],101 % of control
same,T/C,[3],95 % of control
same,T/C,[4],96 % of control
C(=C\c1cc2cc(C3=NCCN3)ccc2o1)/c1ccc(C2=NCCN2)cc1,T/C,"dose: 100.0 mg/kg/injection, schedule: Q04DX003 (ip), vehicle: saline",153 % of control and 157 % of control
O=C(O)C(S(=O)(=O)O)S(=O)(=O)O,T/C,"dose: 1.56 mg/kg/injection, schedule: Q01DX001 (ip), vehicle: saline with Tween-80",103 % of control
same,T/C,"dose: 3.13 mg/kg/injection, schedule: Q01DX001 (ip), vehicle: saline with Tween-80",100 % of control
same,T/C,"dose: 6.25 mg/kg/injection, schedule: Q01DX001 (ip), vehicle: saline with Tween-80",100 % of control
C[Si](C)(C)N=S=N[Si](C)(C)C,T/C,[11],101 % of control
same,T/C,[12],108 % of control
CCOC(=O)CSc1ccc(C)cc1C(O)(C(F)(F)F)C(F)(F)F,T/C,[13],98 % of control
same,T/C,[14],99 % of control
same,T/C,[3],108 % of control
same,T/C,[4],99 % of control
same,T/C,[5],101 % of control
Cc1ccc(=O)c2ccsc2c1,T/C,"dose: 100.0 mg/kg/injection, schedule: Q04DX003 (ip), vehicle: Klucel (hydroxypropylcellulose) (HPC)",105 % of control
same,T/C,"dose: 200.0 mg/kg/injection, schedule: Q04DX003 (ip), vehicle: Klucel (hydroxypropylcellulose) (HPC)",94 % of control
